The source of these data is patent US11279683B2, “Thiophene derivatives as antiviral agents” (ENYO PHARMA, priority 2016, dated 2022).

The test system of this experiment is H1N1 (influenza A/New Caledonia/20/99). The experiment in a line: microbe, parasite or virus in culture. The class given is cell-based. As to conditions: Influenza A virus, H1N1, A549, 48 h.
The compound `O=C(Nc1ccc(Cl)cc1)c1c(NC(=O)N2CCCCC2C(=O)O)sc2c1CCC2` (stereo not drawn) [Compound 89, 1-[[3-[(4-chlorophenyl)carbamoyl]-5,6-dihydro-4H-cyclopenta[b]thiophen-2-yl]carbamoyl]piperidine-2-carboxylic acid] registered an IC50 of 8.8 µM.

For `O=C(Nc1ccc(N2CCOCC2)cc1)c1c(NC(=O)C2CCCCC2C(=O)O)sc2c1CCC2` (stereo not drawn) [Compound 15, 2-[[3-[(4-Morpholinophenyl)carbamoyl]-5,6-dihydro-4H-cyclopenta[b]thiophen-2-yl]carbamoyl]cyclohexanecarboxylic acid], the half-inhibitory concentration (IC50) turned out to be 11.2 µM.

The compound `O=C(Nc1ccc(Cl)c(C(F)(F)F)c1)c1c(NC(=O)C2CCCCC2C(=O)O)sc2c1CCC2` (stereo not drawn) [Compound 6, 2-[[3-[[4-Chloro-3-(trifluoromethyl)phenyl]carbamoyl]-5,6-dihydro-4H-cyclopenta[b]thiophen-2-yl]carbamoyl]cyclohexanecarboxylic acid] yielded an IC50 of 4.68 µM.

`CONC(=O)[C@@H]1CCCC[C@@H]1C(=O)Nc1sc2c(c1C(=O)Nc1ccc(Cl)cc1)CCC2` (stereo in doubt) [Compound 88, N1-[3-[(4-chlorophenyl)carbamoyl]-5,6-dihydro-4H-cyclopenta[b]-thiophen-2-yl]-N2-methoxy-cyclohexane-1,2-dicarboxamide] yielded a concentration for half-maximal inhibition (IC50) of 8.4 µM.

`NS(=O)(=O)N1CCCC(C(=O)Nc2sc3c(c2C(=O)Nc2ccc(Cl)cc2)CCC3)C1` (stereo not drawn) [Compound 83, N-[3-[(4-chlorophenyl)carbamoyl]-5,6-dihydro-4H-cyclopenta[b]thiophen-2-yl]-1-sulfamoyl-piperidine-3-carboxamide] gave an IC50 of 5.05 µM.

`O=C(Nc1ccc(F)c(F)c1)c1c(NC(=O)C2CCCCC2C(=O)O)sc2c1CCC2` (stereo not drawn) [Compound 16, 2-[[3-[(3,4-Difluorophenyl)carbamoyl]-5,6-dihydro-4H-cyclopenta[b]thiophen-2-yl]carbamoyl]cyclohexanecarboxylic acid] registered an IC50 of 10.4 µM.

As for `O=C(Nc1ccc(CCO)cc1)c1c(NC(=O)C2CCCCC2C(=O)O)sc2c1CCC2` (stereo not drawn) [Compound 9, 2-[[3-[[4-(2-Hydroxyethyl)phenyl]carbamoyl]-5,6-dihydro-4H-cyclopenta[b]thiophen-2-yl]carbamoyl]cyclohexanecarboxylic acid], half-maximal inhibition (IC50) required 21.1 µM.

`O=C(Nc1ccc(Cl)cc1)c1c(NC(=O)C2CCCCC2C(=O)O)sc2c1CCC2` (stereo not drawn) [Compound 49, 2-[[3-[(4-Chlorophenyl)carbamoyl]-5,6-dihydro-4H-cyclopenta[b]thiophen-2-yl]carbamoyl]cyclohexane-trans-carboxylic acid] registered a concentration for half-maximal inhibition (IC50) of 12.2 µM.

Compound `CS(=O)(=O)N1CCCC(C(=O)Nc2sc3c(c2C(=O)Nc2ccc(Cl)cc2)CCC3)C1` (stereo not drawn) [Compound 95, N-[3-[(4-chlorophenyl)carbamoyl]-5,6-dihydro-4H-cyclopenta[b]thiophen-2-yl]-1-methylsulfonyl-piperidine-3-carboxamide] displayed a half-inhibitory concentration (IC50) of 13.7 µM.

For `O=C(NC1CCCCC1)c1c(NC(=O)C2CCCCC2C(=O)O)sc2c1CCC2` (stereo not drawn) [Compound 65, 2-[[3-(Cyclohexylcarbamoyl)-5,6-dihydro-4H-cyclopenta[b]thiophen-2-yl]carbamoyl]cyclohexanecarboxylic acid], the concentration for half-maximal inhibition (IC50) stood at 17.7 µM.

On to `O=C(CC1CCOCC1)Nc1sc2c(c1C(=O)Nc1ccc(Cl)cc1)CCC2` [Compound 81, N-(4-chlorophenyl)-2-[(2-tetrahydropyran-4-ylacetyl)amino]-5,6-dihydro-4H-cyclopenta[b]thiophene-3-carboxamide], for which the IC50 worked out at 3.9 µM.

Turning to `CCc1c(C)sc(NC(=O)C2CCCCC2C(=O)O)c1C(=O)Nc1ccccc1` (stereo not drawn) [Compound 73, 2-[[4-Ethyl-5-methyl-3-(phenylcarbamoyl)-2-thienyl]carbamoyl]cyclohexanecarboxylic acid], the IC50 was determined as 24.6 µM.

With `O=C(Nc1ccc(C(F)(F)F)cc1)c1c(NC(=O)C2CCCCC2C(=O)O)sc2c1CCC2` (stereo not drawn) [Compound 27, 2-[[3-[[4-(Trifluoromethyl)phenyl]carbamoyl]-5,6-dihydro-4H-cyclopenta[b]thiophen-2-yl]carbamoyl]cyclohexanecarboxylic acid], the IC50 is 18.1 µM.

The compound `O=C(O)CCC(=O)Nc1sc2c(c1C(=O)Nc1ccc(Cl)cc1)CCC2` [Compound 50, 4-[[3-[(4-Chlorophenyl)carbamoyl]-5,6-dihydro-4H-cyclopenta[b]thiophen-2-yl]amino]-4-oxo-butanoic acid] came in with a half-inhibitory concentration (IC50) of 33.2 µM.

As for `O=C(Nc1ccc(Cl)cc1)c1c(NC(=O)C2CC=CCC2C(=O)O)sc2c1CCC2` (stereo not drawn) [Compound 48, 6-[[3-[(4-Chlorophenyl)carbamoyl]-5,6-dihydro-4H-cyclopenta[b]thiophen-2-yl]carbamoyl]cyclohex-3-ene-1-carboxylic acid], the IC50 was 11.2 µM.

In turn, `NC(=O)C1CCCCC1C(=O)Nc1sc2c(c1C(=O)Nc1ccc(Cl)cc1)CCC2` (stereo not drawn) [Compound 55, N2-[3-[(4-Chlorophenyl)carbamoyl]-5,6-dihydro-4H-cyclopenta[b]thiophen-2-yl]cyclohexane-1,2-dicarboxamide] came in with an IC50 of 27 µM.

Turning to `NC(=O)N1CCCC(C(=O)Nc2sc3c(c2C(=O)Nc2ccc(Cl)cc2)CCC3)C1` (stereo not drawn) [Compound 92, N3-[3-[(4-chlorophenyl)carbamoyl]-5,6-dihydro-4H-cyclopenta[b]thiophen-2-yl]piperidine-1,3-dicarboxamide], the midpoint of inhibition, the IC50, lay at 11.4 µM.

In turn, `CN(C(=O)c1c(NC(=O)C2CCCCC2C(=O)O)sc2c1CCC2)c1ccc(Cl)cc1` (stereo not drawn) [Compound 34, 2-[[3-[(4-Chlorophenyl)-methyl-carbamoyl]-5,6-dihydro-4H-cyclopenta[b]thiophen-2-yl]carbamoyl]cyclohexanecarboxylic acid] had an IC50 of 30.4 µM.

In the case of `CC(C)(C)C1CCc2c(sc(NC(=O)[C@H]3CCCC[C@H]3C(=O)O)c2C(=O)Nc2ccc(Cl)cc2)C1` (stereo in doubt) [Compound 79, 2-[[6-tert-butyl-3-[(4-chlorophenyl)carbamoyl]-4,5,6,7-tetrahydrobenzothiophen-2-yl]carbamoyl]cyclohexanecarboxylic acid], it took 1.85 µM to reach half-maximal inhibition (IC50).

On to `CCc1c(C)sc(NC(=O)C2CCCCC2C(=O)O)c1C(=O)Nc1cccc(Cl)c1` (stereo not drawn) [Compound 70, 2-[[3-[(3-Chlorophenyl)carbamoyl]-4-ethyl-5-methyl-2-thienyl]carbamoyl]cyclohexanecarboxylic acid], for which the concentration for half-maximal inhibition (IC50) was found to be 14.7 µM.

Turning to `CC(C)c1cc(C(=O)Nc2ccccc2)c(NC(=O)C2CCCCC2C(=O)O)s1` (stereo not drawn) [Compound 72, 2-[[5-Isopropyl-3-(phenylcarbamoyl)-2-thienyl]carbamoyl]cyclohexanecarboxylic acid], half-maximal inhibition (IC50) was put at 9.92 µM.

For the compound `O=C(Nc1ccc(Cl)cc1)c1c(N2C(=O)C3CCCCC3C2=O)sc2c1CCC2` (stereo not drawn) [Compound 54, N-(4-Chlorophenyl)-2-(1,3-dioxo-3a,4,5,6,7,7a-hexahydroisoindol-2-yl)-5,6-dihydro-4H-cyclopenta[b]thiophene-3-carboxamide], the IC50 was 5.98 µM.

`Cc1cc(NC(=O)c2c(NC(=O)C3CCCCC3C(=O)O)sc3c2CCC3)ccc1Cl` (stereo not drawn) [Compound 13, 2-[[3-[(4-Chloro-3-methyl-phenyl)carbamoyl]-5,6-dihydro-4H-cyclopenta[b]thiophen-2-yl]carbamoyl]cyclohexanecarboxylic acid] gave an IC50 of 4.68 µM.

With `Cc1cccc(NC(=O)c2c(NC(=O)C3CC=CCC3C(=O)O)sc3c2CCCC3)c1` (stereo not drawn) [Compound 68, 6-[[3-(m-Tolylcarbamoyl)-4,5,6,7-tetrahydrobenzothiophen-2-yl]carbamoyl]cyclohex-3-ene-1-carboxylic acid], inhibition was half-maximal at 11.7 µM (IC50).

`O=C(Nc1ccccc1)c1c(NC(=O)C2CCCCC2C(=O)O)sc2c1CCC2` (stereo not drawn) [Compound 74, 2-[[3-(Phenylcarbamoyl)-5,6-dihydro-4H-cyclopenta[b]thiophen-2-yl]carbamoyl]cyclohexanecarboxylic acid] came in with an IC50 of 12.4 µM.

On to `O=C(Nc1ccc(Cl)nc1)c1c(NC(=O)C2CCCCC2C(=O)O)sc2c1CCC2` (stereo not drawn) [Compound 2, 2-[[3-[(6-Chloro-3-pyridyl)carbamoyl]-5,6-dihydro-4H-cyclopenta[b]thiophen-2-yl]carbamoyl]cyclohexanecarboxylic acid], for which the IC50 is 18 µM.

Compound `O=C(O)c1ccccc1C(=O)Nc1sc2c(c1C(=O)Nc1ccc(Cl)cc1)CCC2` [Compound 44, 2-[[3-[(4-Chlorophenyl)carbamoyl]-5,6-dihydro-4H-cyclopenta[b]thiophen-2-yl]carbamoyl]benzoic acid] yielded an IC50 of 21.6 µM.

`CC1CCC(NC(=O)c2c(NC(=O)C3CCCCC3C(=O)O)sc3c2CCC3)CC1` (stereo not drawn) [Compound 35, 2-[[3-[(4-Methylcyclohexyl)carbamoyl]-5,6-dihydro-4H-cyclopenta[b]thiophen-2-yl]carbamoyl]cyclohexanecarboxylic acid] gave a half-inhibitory concentration (IC50) of 12.4 µM.

Turning to `O=C(Nc1ccc(Cl)cc1)c1c(NC(=O)C2CCN2)sc2c1CCC2` (stereo not drawn) [Compound 96, N-[3-[(4-chlorophenyl)carbamoyl]-5,6-dihydro-4H-cyclopenta[b]thiophen-2-yl]azetidine-2-carboxamide], the concentration for half-maximal inhibition (IC50) came out at 14.1 µM.

Take `Cc1nccn1CC(=O)Nc1sc2c(c1C(=O)Nc1ccc(Cl)cc1)CCCC2` [Compound 75, N-(4-Chlorophenyl)-2-[[2-(2-methylimidazol-1-yl)acetyl]amino]-4,5,6,7-tetrahydrobenzothiophene-3-carboxamide]: the IC50 worked out at 17.1 µM.

As to `N#Cc1ccc(NC(=O)c2c(NC(=O)C3CCCCC3C(=O)O)sc3c2CCC3)cc1` (stereo not drawn) [Compound 28, 2-[[3-[(4-Cyanophenyl)carbamoyl]-5,6-dihydro-4H-cyclopenta[b]thiophen-2-yl]carbamoyl]cyclohexanecarboxylic acid], the IC50 is 15.9 µM.

`Cc1cccc(NC(=O)c2c(NC(=O)C3CCCCC3C(=O)O)sc3c2CCCC3)c1` (stereo not drawn) [Compound 69, 2-[[3-(m-Tolylcarbamoyl)-4,5,6,7-tetrahydrobenzothiophen-2-yl]carbamoyl]cyclohexanecarboxylic acid]: the IC50 was 13.9 µM.

For the compound `O=C(Nc1ccc(F)cc1)c1c(NC(=O)C2CCCCC2C(=O)O)sc2c1CCC2` (stereo not drawn) [Compound 4, 2-[[3-[(4-Fluorophenyl)carbamoyl]-5,6-dihydro-4H-cyclopenta[b]thiophen-2-yl]carbamoyl]cyclohexanecarboxylic acid], the IC50 came to 15 µM.
